Results published in patent US20080213183A1, “Free or Liposomal Gemcitabine Alone or in Combination with Free or Liposomal Idarubicin” (priority 2004, published 2008).
Structures can show the parent of a compound that is named as a salt. Where two headings read alike, the source gives them in different places. Marks after values point to notes of the source that are not given here.

Key:
[1] = tested on: P388 lymphocytic leukemia cells; experiment: MTT cytotoxicity assay with median effects (Chou and Talalay) analysis; type: cell-based, murine; settings: for IC50 / IC90: Mus musculus; for IC50: P388, 72 h, read-out: IC50 (concentration required to achieve 50% cell kill); for IC90: P388, read-out: IC90 drug concentration (90% cell kill)
Method: For in vitro analysis, P388 wild type and doxorubicin resistant (ADR) cells were obtained from the National Cancer Institute tissue repository (Bethesda, Md., USA) and were propagated in vivo. In brief, one vial of frozen ascites was removed from the nitrogen tank and thawed at 37° C. and cells were injected i.p. into female BDF-1 mice (6-8 weeks old, 20-22 g, Charles River Laboratories, St. Constant, QC, Canada). Transfer mice were euthanized and a peritoneal lavage was performed. With a 1 cc syringe with 20 gauge needle, 0.5-1.0 ml of peritoneal fluid was removed and aliquotted into a 15 ml falcon tube containing 5 ml of Hank's Balanced Salt Solution (HBSS, no calcium or magnesium). 0.5 ml aliquot was transferred into another 15 ml conical sterile tube containing 5 ml HBSS. The cells were exposed to plastic culture wear (for adherence of monocytes) and Ficoll-Paque density centrifugation (red blood cell removal). […] For each passage, 2 female BDF-1 mice were injected with 1×10^6 cells in 0.5 ml (2×10^6 cells/ml) of P388 cell suspension intraperitoneally. This was repeated every 6-8 days to a maximum of 20 passages. Cells adequate for animal experiments were used between the 3rd-20th passage. For tissue culture experiments such as MTT cytotoxicity assays, P388 cells were obtained following peritoneal lavage and treatment to remove red blood cells and peritoneal macrophages. […] In order to assess cytotoxicity the MTT (3-(4,5-dimethylthiazol-2-yl)-2,5-diphenyl tetrazolium bromide) assay was utilized. […] The wells in the perimeter of the 96 well microtiter plates contained 0.2 ml sterile water. […] Control wells consisted of media only (200 μl/well), or cells and media (no treatment). There were 6 replicates (per plate) for all control and treatment groups). […] The media was aspirated off and 0.15 ml DMSO was added per well and resuspended on a plate shaker (5-10 min). […] The cytotoxicity upon drug exposure was quantified by expressing the percent cell viability for each treatment relative to untreated control cells (% control). […] This was further analyzed by the median effects principle by Chou and Talalay, cited above. The method by Chou and Talalay was used to distinguish between synergy, antagonism and additive effects of combined drug treatments from in vitro MTT cytotoxicity assays. This method, now provided in a software package (Calculsyn; Biosoft, Cambridge, UK), derives a median effects equation (1) to correlate drug dose and effect. Fixed ratio combinations of idarubicin and gemcitabine were initially selected on the basis of IC50 of each drug. […] Data were reported as mean±S.D. from three separate experiments, performed in triplicate.

[2] = Plasma elimination of free and liposomal gemcitabine; type: in vivo, Balb/c mice; settings: 33 μmole gemcitabine/kg i.v.
Method: Pharmacokinetic Analysis: Balb/c mice breeders, 20-22 g, were purchased from Charles River Laboratories (St. Constant, QC, Canada) and bred in-house. Mice were housed in micro-isolator cages and given free access to food and water. All animal studies were conducted according to procedures approved by the University of British Columbia's Animal Care Committee and in accordance with the current guidelines established by the Canadian Council of Animal Care.
The plasma elimination of idarubicin and gemcitabine containing tracer quantities of 3[H]-gemcitabine was assessed. Mice were injected with 33 μmoles/kg drug administered intravenously into the lateral tail vein of Balb/c mice. At various time points up to 4 hours post drug administration, blood was collected by tail nick (collected in microfuge tubes) or cardiac puncture (collected in liquid EDTA coated tubes), centrifuged at 1000 g to isolate the plasma fraction. The plasma was placed in a separate microfuge tube and vortexed to ensure a homogenous distribution.
The tail nick procedure for obtaining blood samples was used to minimize the number of mice sacrificed. In this way, three blood samples could be obtained from a single mouse within a 24 hour time interval. In brief, the lateral tail vein of mice was nicked with a small sharp blade. A 25 μl glass pipette, pre-washed with EDTA, was used to withdraw blood. The blood was expelled into a microfuge tube containing 200 μl of 5% (wt/vol) EDTA and thoroughly mixed. Blood/EDTA samples were centrifuged for 10 minutes at 1000 g. The supernatant was transferred to a 1.5 ml microfuge tube. 250 μl Hank's balanced salt solution (HBSS) was added to the pellet, resuspended and centrifuged for 10 minutes at 1000 g. The supernatants were mixed together. Assuming a 48% hematocrit for a 20 gram Balb/c mice, approximately 13 μl plasma was obtained from a 25 μl blood sample. From the recovered plasma samples, aliquots were used to measure drug (and or lipid) concentrations.
The plasma elimination of liposomal drugs containing doxorubicin, daunorubicin, idarubicin, or gemcitabine samples administered intravenously into the lateral tail vein of Balb/c female mice was assessed. Mice were injected with 33 μmole/kg drug and 165 μmole/kg lipid. For liposomal gemcitabine samples, mice were injected with 33 μmole/kg gemcitabine at an approximate 0.1 drug-to-lipid mole ratio). At various time points post drug administration, blood was collected by tail nick or cardiac puncture. Plasma lipid and 3[H]-gemcitabine were quantified by liquid scintillation counting. Anthracyclines were extracted from plasma with a partitioning assay, followed by fluorescence spectrometer detection.
The plasma elimination data was modeled using WinNonlin (version 1.5) pharmacokinetic software (Pharsight Corporation, Mountain View, Calif., USA) to calculate pharmacokinetic parameters. […] The mean plasma AUC for a defined time interval was determined from the concentration-time curves and subsequent calculation by the standard trapezoidal rule.
Liposome mediated increases in gemcitabine blood residence time were also evaluated as follows: Free and liposomal gemcitabine formulations were administered to female Balb/c mice at a dose of 33 μmole gemcitabine/kg (9.9 mg/kg) and 165 μmole total lipid/kg.

[3] = Dose range finding, maximum tolerable dose; type: in vivo; settings: no significant toxicity for 30 days
Method: Dose range finding studies of free and liposomal idarubicin and/or gemcitabine were performed in non-tumor bearing female BDF-1 mice. Mice were weighed daily and monitored for signs of stress or toxicity (e.g., lethargy, scruffy coat, ataxia).

[4] = tested on: non small cell lung cancer; settings: cited from earlier work
[5] = at IC90, GEM/IDA 1:1 fixed molar ratio
[6] = at IC90, GEM/IDA 1:10 fixed molar ratio
[7] = female, Balb/c, mouse, iv, 33 μmole/kg, plasma

Method for P388 tumors: For in vivo testing of antitumor activity was evaluated in P388 lymphocytic leukemia model.
Treatments commenced 24 hours post tumor cell inoculation. Treatment groups consisted of saline (control) and 0.5, 1, 2 and 3 mg/kg doses of free or liposomal idarubicin administered as a single i.v. bolus injection and between 100 to 500 mg/kg gemcitabine and 1 to 5 mg/kg liposomal gemcitabine (selected on the basis of dose range finding studies). Fixed dose ratios for combination treatments were defined on the basis of 0.66 MTD when used as a single agent. […] Median survival and percent weight loss was determined for each treatment.
All data values are reported as mean±standard deviation (S.D.). A standard one-way analysis of variance (ANOVA) was used to determine statistically significant differences of the means. For multiple comparisons, post-hoc analysis using the Tukey-Kramer test. Survival curves were computed using the Kaplan-Meier method. […] Treatment groups were subsequently analyzed using SPSS statistics software (SPSS Inc., Chicago, Ill., USA) and compared using a two sample log-rank test. P<0.05 was considered significant for all statistics tests.

Structure (SMILES): CC(=O)[C@]1(O)Cc2c(O)c3c(c(O)c2[C@@H](O[C@H]2C[C@H](N)[C@H](O)[C@H](C)O2)C1)C(=O)c1ccccc1C3=O [IDA, idarubicin hydrochloride]
- IC50 [1]: 1.8 nM
- IC90 [1]: 5.7 nM
- dose reduction index (DRI) [1, 5]: 11.8
- dose reduction index (DRI) [1, 6]: 8.5
- fold reduction in concentration required ([1]; at IC90, GEM/IDA 10:1 fixed ratio): 180 fold
- % ILS (P388 tumors; IDA 0.5 mg/kg): 13%
- % Weight Change, day 5 (P388 tumors; IDA 0.5 mg/kg): 13.6%
- Cell Kill (P388 tumors; IDA 0.5 mg/kg): 0.6 LOG10
- MST (P388 tumors; IDA 0.5 mg/kg): 9 days
- Survivors (P388 tumors; IDA 0.5 mg/kg): 0/12
- % ILS (P388 tumors; IDA 1 mg/kg): 50%
- % Weight Change, day 5 (P388 tumors; IDA 1 mg/kg): 2.1%
- Cell Kill (P388 tumors; IDA 1 mg/kg): 2.3 LOG10
- MST (P388 tumors; IDA 1 mg/kg): 12 days
- Survivors (P388 tumors; IDA 1 mg/kg): 0/12
- % ILS (P388 tumors; IDA 2 mg/kg): 113%
- % Weight Change, day 5 (P388 tumors; IDA 2 mg/kg): −1.4%
- Cell Kill (P388 tumors; IDA 2 mg/kg): 5.1 LOG10
- MST (P388 tumors; IDA 2 mg/kg): 17 days
- Survivors (P388 tumors; IDA 2 mg/kg): 1/12

Structure (SMILES): Nc1ccn([C@@H]2O[C@H](CO)[C@@H](O)C2(F)F)c(=O)n1 [GEM, gemcitabine hydrochloride]
- IC50 [1]: 0.26 nM
- IC90 [1]: 0.9 nM
- dose reduction index (DRI) [1, 5]: 1.8
- dose reduction index (DRI) [1, 6]: 14
- fold more cytotoxic than idarubicin ([1]; from IC50): approximately 10 fold
- AUC0-t ([2]; Tlast 4 hours): 0.1^b μmole · h · ml^−1
- AUMC ([2]; plasma): 0.3 μmole · h^2 · ml^−1
- MRT last [2, 7]: 3.1 h
- clearance [2, 7]: 0.102 mL/min
- half-life [2, 7]: 2.1 h
- maximum tolerable dose [3]: 500 mg/kg
- % ILS (P388 tumors; GEM 100 mg/kg): 63%
- % Weight Change, day 5 (P388 tumors; GEM 100 mg/kg): 0.4%
- Cell Kill (P388 tumors; GEM 100 mg/kg): 2.9 LOG10
- MST (P388 tumors; GEM 100 mg/kg): 13 days
- Survivors (P388 tumors; GEM 100 mg/kg): 0/6
- % ILS (P388 tumors; GEM 200 mg/kg): 81%
- % Weight Change, day 5 (P388 tumors; GEM 200 mg/kg): 3.0%
- Cell Kill (P388 tumors; GEM 200 mg/kg): 3.7 LOG10
- MST (P388 tumors; GEM 200 mg/kg): 14.5 days
- Survivors (P388 tumors; GEM 200 mg/kg): 0/6
- % ILS (P388 tumors; GEM 300 mg/kg): 81%
- % Weight Change, day 5 (P388 tumors; GEM 300 mg/kg): 2.3%
- Cell Kill (P388 tumors; GEM 300 mg/kg): 3.7 LOG10
- MST (P388 tumors; GEM 300 mg/kg): 14.5 days
- Survivors (P388 tumors; GEM 300 mg/kg): 0/6
- % Weight Change, day 5 (P388 tumors; GEM 400 mg/kg): 1.8%
- Cell Kill (P388 tumors; GEM 400 mg/kg): 4.0 LOG10
- MST (P388 tumors; GEM 400 mg/kg): 15 days
- Survivors (P388 tumors; GEM 400 mg/kg): 0/6
- % ILS (P388 tumors; GEM 400 mg/kg, hydrochloride): 88%
- % ILS (P388 tumors; GEM 400 mg/kg, listed as free gemcitabine, hydrochloride): 87.5%
- % ILS (P388 tumors; GEM 500 mg/kg): 75%
- % Weight Change, day 5 (P388 tumors; GEM 500 mg/kg): 0.0%
- Cell Kill (P388 tumors; GEM 500 mg/kg): 3.4 LOG10
- MST (P388 tumors; GEM 500 mg/kg): 14 days
- Survivors (P388 tumors; GEM 500 mg/kg): 0/10
- maximum therapeutic dose (P388 tumors; P388 model, single agent): 400 mg/kg
- overall response rate ([4]; 800-1250 mg/m2, in combination with cisplatin): 50%
- overall response rate ([4]; 800-1250 mg/m2, single agent): 20%
- median survival ([4]; in combination with cisplatin): greater than 1 year
